This is an account of results in ChEMBL document CHEMBL1201862, “PubChem BioAssay data set” (2004).

Structures are written as SMILES.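 Interpolation was linear, between the two tested concentrations surrounding the appropriate level; five concentrations were tested over 48 hours in 96-well plates. GI50 is the concentration that inhibits growth by half.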 Calls of active or inactive are those of the source. No stated cut-off is given here; in the data, active = GI50 up to about 1.1 µM and inactive = higher. Where only a bound is given, the exact number is not on record here.

What all share (experiment): growth of human tumour cells (NCI), 48 h
The subject of experiment [1] is U-251.
Experiment [2] concerns OVCAR-5.
Experiment [3] relates to SF-268.
Experiment [4] relates to 786-0.
For experiment [5], the system named is UO-31.
Experiment [6] concerns CAKI-1.
Experiment [7] concerns OVCAR-4.
Experiment [8] deals with HCT-116.
Experiment [9] has as its system OVCAR-8.
Experiment [10] has as its system T47D.
For experiment [11], the system named is A549.
Experiment [12] relates to CCRF-CEM.
Experiment [13] concerns Hs-578T.
In experiment [14] the test system is BT-549.
The test system of experiment [15] is EKVX.
Experiment [16] concerns MOLT-4.
The subject of experiment [17] is NCI/ADR-RES.
Experiment [18] relates to PC-3.
In experiment [19] the test system is RXF 393.
The subject of experiment [20] is A498.

Take `COCC[N+](CCNC(=O)c1cccc2c(N)c3cccc(C)c3nc12)(CCOC)Cc1ccc([N+](=O)[O-])cc1`: the GI50 in [1] was 19.8 µM (inactive); in experiment [2] it was 30.9 µM (inactive); in experiment [3], 12.4 µM (inactive); in experiment [4], 19.1 µM (inactive); in [5] it was 63 µM (inactive); in [6], > 100 µM (inactive). For the same molecule, the GI50 is 43.3 µM (inactive) in experiment [7]; 17.2 µM (inactive) in experiment [8]; 26.6 µM (inactive) in experiment [9]; 18.1 µM (inactive) in experiment [10]; 13.5 µM (inactive) in [11]; 6.15 µM (inactive) in experiment [12]. Moreover, the GI50 in [13] is 10.8 µM (inactive); in experiment [14] it was 21.8 µM (inactive); in experiment [15], 24.2 µM (inactive); in experiment [16] it was 3.57 µM (inactive); in experiment [17], 88.3 µM (inactive); in [18], 9.53 µM (inactive).

Consider `COCOc1ccc(C2(O)Oc3cc(OCOC)ccc3C2C)c(O)c1` (centres undefined), for which the GI50 was 15 µM (inactive) in [1]; 17.1 µM (inactive) in [2]; 15.9 µM (inactive) in experiment [3]; 17.8 µM (inactive) in experiment [4]; 11.6 µM (inactive) in [5]; 16.3 µM (inactive) in experiment [6]. In addition, the GI50 is 17.3 µM (inactive) in experiment [7]; 14.3 µM (inactive) in experiment [8]; 16.8 µM (inactive) in experiment [9]; 12.3 µM (inactive) in [10]; 16.4 µM (inactive) in experiment [19]; 15.9 µM (inactive) in experiment [11]. Besides, the GI50 was 14.9 µM (inactive) in experiment [12]; 14.2 µM (inactive) in experiment [14]; 14.6 µM (inactive) in [15]; 10.3 µM (inactive) in experiment [16]; 13.5 µM (inactive) in experiment [17]; 13.2 µM (inactive) in experiment [18]. Further, the GI50 in experiment [20] was 15.5 µM (inactive).

In the case of `CSC1C(=O)Nc2ccc3ccccc3c21` (centres undefined), the GI50 is 17.8 µM (inactive) in [1]; > 100 µM (inactive) in experiment [2]; 17.4 µM (inactive) in experiment [3]; 16.1 µM (inactive) in [4]; 16.1 µM (inactive) in experiment [5]; 19.1 µM (inactive) in experiment [6]. In addition, the GI50 was 20.2 µM (inactive) in experiment [7]; 15.7 µM (inactive) in [8]; 17.7 µM (inactive) in experiment [9]; 9.71 µM (inactive) in experiment [10]; > 100 µM (inactive) in [11]; 21 µM (inactive) in experiment [12]. Further, the GI50 is 15.3 µM (inactive) in [13]; 23.8 µM (inactive) in [14]; 15.8 µM (inactive) in [15]; 28.1 µM (inactive) in experiment [16]; 29.6 µM (inactive) in experiment [17]; 16.3 µM (inactive) in experiment [18].

Take `Cc1ccc(/C=N/Nc2cc(C)c3ccccc3n2)s1`: the GI50 is 16.8 µM (inactive) in experiment [1]; 15.6 µM (inactive) in experiment [2]; 26.1 µM (inactive) in experiment [3]; 18.7 µM (inactive) in experiment [4]; > 100 µM (inactive) in experiment [5]; 11.4 µM (inactive) in experiment [6]. Further, the GI50 in experiment [7] was 20 µM (inactive); in experiment [8], 3.85 µM (inactive); in experiment [9], 23.2 µM (inactive); in [10], 5.48 µM (inactive); in experiment [19], 23.3 µM (inactive); in experiment [11], 16.5 µM (inactive). Also, the GI50 is 13.1 µM (inactive) in experiment [12]; 31.5 µM (inactive) in experiment [13]; 21.3 µM (inactive) in experiment [14]; 4.84 µM (inactive) in experiment [15]; 1.42 µM (inactive) in [16]; 11.1 µM (inactive) in experiment [17]. Also, the GI50 in experiment [18] was 14 µM (inactive).

In the case of `Cc1c(C#N)c2nc3ccccc3n2c(=O)/c1=C/Nc1ccc(Cl)cc1`, the GI50 in experiment [1] is 7.66 µM (inactive); in [2], 9.64 µM (inactive); in experiment [3], 22.9 µM (inactive); in experiment [4] it was 6.25 µM (inactive); in experiment [5], 15.7 µM (inactive); in experiment [6], 11.3 µM (inactive). Further, the GI50 in experiment [7] was > 100 µM (inactive); in experiment [8] it was 16.6 µM (inactive); in experiment [9], 51.3 µM (inactive); in [10], 37.6 µM (inactive); in experiment [19], 11.7 µM (inactive); in experiment [11] it was 53.1 µM (inactive). Also, the GI50 was 10.8 µM (inactive) in experiment [13]; 22.7 µM (inactive) in experiment [14]; 50.7 µM (inactive) in experiment [15]; 34.9 µM (inactive) in experiment [16]; 95.7 µM (inactive) in experiment [17]; 15.9 µM (inactive) in experiment [20].

`COC(=O)C1C(O)CCC2CN3CCc4c([nH]c5cccc(OC)c45)C3CC21` (centres undefined): the GI50 in experiment [1] is > 100 µM (inactive); in [2] it was > 100 µM (inactive); in experiment [3], > 100 µM (inactive); in [4] it was > 100 µM (inactive); in experiment [5], 76 µM (inactive); in experiment [6], > 100 µM (inactive). Besides, the GI50 is > 100 µM (inactive) in [7]; > 100 µM (inactive) in experiment [8]; > 100 µM (inactive) in [9]; > 100 µM (inactive) in [10]; 59.2 µM (inactive) in [19]; > 100 µM (inactive) in experiment [11]. For the same molecule, the GI50 in experiment [12], in [13], in [14], in [15], in experiment [16] and in experiment [18] was > 100 µM (inactive) throughout. The GI50 in experiment [20] was > 100 µM (inactive).

Turning to `COc1cc2c(c(OC)c1OC)-c1cccc(=O)cc1C(NC(C)=O)CC2` (centres undefined), the GI50 is 0.0771 µM (active) in experiment [1]; 7.5 µM (inactive) in experiment [2]; 0.128 µM (active) in [3]; 0.136 µM (active) in experiment [4]; 4.93 µM (inactive) in [5]; 0.211 µM (active) in [6]. The GI50 in experiment [7] was 32.4 µM (inactive); in experiment [8], 0.055 µM (active); in [9], 0.2 µM (active); in experiment [10] it was > 100 µM (inactive); in [19], 0.0543 µM (active); in experiment [11], 0.317 µM (active). The GI50 in experiment [12] is 0.0414 µM (active); in experiment [13], > 100 µM (inactive); in experiment [14] it was 0.437 µM (active); in [15] it was > 100 µM (inactive); in [16] it was 0.0553 µM (active); in experiment [18] it was 0.0152 µM (active). Besides, the GI50 in experiment [20] is 0.332 µM (active).

On to `O=C1CC(c2ccc[nH]2)=NN1c1ccccc1`, for which the GI50 in experiment [1], in [2], in [3], in [4], in experiment [5] and in [6] was > 100 µM (inactive) throughout. Also, the GI50 in [7], in experiment [8], in experiment [9], in [10], in [19] and in experiment [11] was > 100 µM (inactive) throughout. Further, the GI50 in [12] was 88.5 µM (inactive); in experiment [14], > 100 µM (inactive); in [15] it was > 100 µM (inactive); in experiment [16] it was 27.8 µM (inactive); in experiment [17], > 100 µM (inactive); in [18] it was > 100 µM (inactive). Besides, the GI50 in experiment [20] is > 100 µM (inactive).
